Patent US7932263B2, “Therapeutic treatment” (AstraZeneca AB, priority 2003, dated 2011)

Experiments:
Assay type in all cases: in vivo, mouse
[1] = tested on: apo-E knockout mice fed high-cholesterol diet; assay: Quantitative analysis of atherosclerotic plaques (Sudan IV stained aortas); conditions: 1 mg/kg/d of each drug, 12 weeks, vs high-cholesterol diet alone
Protocol: Five pairs of C57BL/6J mice and three pairs of homozygous apo-E knockout mice (on C57BL/6J background) were obtained from Jackson Laboratories (Bar Harbor, Me.). They were bred by brother-sister mating and housed in a room lit from 6:00 AM to 6:00 PM and kept at 21° C. The C57BL/6J mice (n=10) were continued on regular diet for the entire study period. The apo-E knockout mice were divided into four groups. Group 1 (n=10) animals were given high-cholesterol diet (1% cholesterol) alone for 12 weeks since the age of 6 weeks; Group 2 (n=10) animals were given high-cholesterol diet with candesartan (1 mg/kg/d) for 12 weeks since the age of 6 weeks; Group 3 (n=10) animals were given high-cholesterol diet with the rosuvastatin (1 mg/kg/d) for 12 weeks since the age of 6 weeks; Group 4 (n=10) animals were given high-cholesterol diet with candesartan (1 mg/kg/d) and rosuvastatin (1 mg/kg/d) for 12 weeks since the age of 6 weeks. At the end of 12-week-treatment, the mice were sacrificed and subject to studies described below. All experimental procedures were performed in accordance with protocols approved by the institutional Animal Care and Usage Committee of University of Arkansas for Medical Sciences. Quantitative Analysis of Atherosclerotic Plaques At the end of 12-week-treatment, 5 mice from each group were euthanized and the aortas were separated from surrounding tissues. After removal of the adventitial fat tissue, the aortas were opened longitudinally from the aorta arch to the iliac bifurcation, and fixed in 10% formalin for 24 hours. Then the aortas were rinsed in 70% alcohol briefly, stained with Sudan IV solution for 15 minutes, differentiated in 80% alcohol for 20 minutes and washed in running water for 1 hour (Russell L. Techniques for studying atherosclerotic lesion, Lab Invest. 1958; 7:42-47). […] The images were analyzed by soft ware (Image Pro Plus, Media Cybernetics). […] Statistical significance was determined in multiple comparisons among independent groups of data in which ANOVA and the F test indicated the presence of significant differences. […]

MMP-9 = MMP-9 expression in aorta by RT-PCR and Western blot; conditions: aorta of apo-E knockout mice, high-cholesterol diet, 1 mg/kg/d of each drug, 12 weeks; vs high-cholesterol diet alone
Protocol: (§1) Five pairs of C57BL/6J mice and three pairs of homozygous apo-E knockout mice (on C57BL/6J background) were obtained from Jackson Laboratories (Bar Harbor, Me.). They were bred by brother-sister mating and housed in a room lit from 6:00 AM to 6:00 PM and kept at 21° C. The C57BL/6J mice (n=10) were continued on regular diet for the entire study period. The apo-E knockout mice were divided into four groups. Group 1 (n=10) animals were given high-cholesterol diet (1% cholesterol) alone for 12 weeks since the age of 6 weeks; Group 2 (n=10) animals were given high-cholesterol diet with candesartan (1 mg/kg/d) for 12 weeks since the age of 6 weeks; Group 3 (n=10) animals were given high-cholesterol diet with the rosuvastatin (1 mg/kg/d) for 12 weeks since the age of 6 weeks; Group 4 (n=10) animals were given high-cholesterol diet with candesartan (1 mg/kg/d) and rosuvastatin (1 mg/kg/d) for 12 weeks since the age of 6 weeks.
(§2) At the end of 12-week-treatment, 5 mice from each group were euthanized and the aortas (from aorta arch to iliac bifurcation) were separated from surrounding tissues and stored on dry ice. Each aorta was cut into four segments, two of which were used to extract total RNA with the single-step acid-guanidinium thiocyanate-phenol-chloroform method as described earlier (27). […]

TIMP-2 = TIMP-2 protein expression in aorta by Western blot; conditions: aorta of apo-E knockout mice, high-cholesterol diet, 1 mg/kg/d of each drug, 12 weeks; vs high-cholesterol diet alone
Protocol: (§3) Five pairs of C57BL/6J mice and three pairs of homozygous apo-E knockout mice (on C57BL/6J background) were obtained from Jackson Laboratories (Bar Harbor, Me.). They were bred by brother-sister mating and housed in a room lit from 6:00 AM to 6:00 PM and kept at 21° C. The C57BL/6J mice (n=10) were continued on regular diet for the entire study period. The apo-E knockout mice were divided into four groups. […]
(§4) Each mouse aorta was cut into four segments. […] Membranes were washed and then incubated with 1:5000 dilution specific secondary antibody (Amersham Life Science) for 2 hours at room temperature, and the membranes were washed and detected with the ECL system (Amersham Life Science). The relative intensities of protein bands were analyzed by Scan-gel-it software (Li D Y, Zhang Y C, Sawamura T, Mehta J L. Circ Res. 1999; 84:1043-1049).
(§5) All data represent mean of duplicate samples. […] Statistical significance was determined in multiple comparisons among independent groups of data in which ANOVA and the F test indicated the presence of significant differences. […]

TIMP-1 = TIMP-1 protein expression in aorta by Western blot; conditions: aorta of apo-E knockout mice, high-cholesterol diet, 1 mg/kg/d of each drug, 12 weeks; vs high-cholesterol diet alone
Protocol: as §3, §4, §5

CD40 = CD40 expression in aorta by RT-PCR and Western blot; conditions: aorta of apo-E knockout mice, high-cholesterol diet, 1 mg/kg/d of each drug, 12 weeks; vs high-cholesterol diet alone
Protocol: as §1, §2

LOX-1 = LOX-1 expression in aorta by RT-PCR and Western blot; conditions: aorta of apo-E knockout mice, high-cholesterol diet, 1 mg/kg/d of each drug, 12 weeks; vs high-cholesterol diet alone
Protocol: as §1, §2

MMP-2 = MMP-2 expression in aorta by RT-PCR and Western blot; conditions: aorta of apo-E knockout mice, high-cholesterol diet, 1 mg/kg/d of each drug, 12 weeks; vs high-cholesterol diet alone
Protocol: as §1, §2

MMP-1 = MMP-1 expression in aorta by RT-PCR and Western blot; conditions: aorta of apo-E knockout mice, high-cholesterol diet, 1 mg/kg/d of each drug, 12 weeks; vs high-cholesterol diet alone
Protocol: as §1, §2

Structure (SMILES) | decrease of atherosclerosis [1] | MMP-9 expression (mRNA and protein) (MMP-9) | TIMP-2 protein expression (TIMP-2) | TIMP-1 protein expression (TIMP-1) | CD40 expression (mRNA and protein) (CD40) | LOX-1 expression (mRNA and protein) (LOX-1) | MMP-2 expression (mRNA and protein) (MMP-2) | extent of atherosclerosis (in words) [1] | MMP-1 expression (mRNA and protein) (MMP-1)
CCOc1nc2cccc(C(=O)O)c2n1Cc1ccc(-c2ccccc2-c2nnn[nH]2)cc1 [candesartan] | about 35% |  |  |  |  |  |  |  | 
CC(C)c1nc(N(C)S(C)(=O)=O)nc(-c2ccc(F)cc2)c1/C=C/[C@@H](O)C[C@@H](O)CC(=O)O [rosuvastatin] | ~25% | decreased MMP-1, -2 and -9 expression (mRNA and protein), albeit modestly | reduced TIMP-1 and TIMP-2 expression by a small degree | reduced TIMP-1 and TIMP-2 expression by a small degree | slightly decreased CD40 expression | decreased the LOX-1 expression (mRNA and protein), albeit modestly | decreased MMP-1, -2 and -9 expression (mRNA and protein), albeit modestly | decreased the extent of atherosclerosis | decreased MMP-1, -2 and -9 expression (mRNA and protein), albeit modestly
